From ChEMBL document CHEMBL1165965, “Synthesis and structure-activity relationships of 1,2,3,4-tetrahydropyrido[2,3-b]pyrazines as potent and selective inhibitors of the anaplastic lymphoma kinase” (Bioorg Med Chem, 2010)

Tests used:
[1] = biological target: T1, Serine/threonine-protein kinase D1 (Homo sapiens) (UniProt Q15139); assay: Inhibition of PRKD1 at 1 uM
T1 sequence (whole entry): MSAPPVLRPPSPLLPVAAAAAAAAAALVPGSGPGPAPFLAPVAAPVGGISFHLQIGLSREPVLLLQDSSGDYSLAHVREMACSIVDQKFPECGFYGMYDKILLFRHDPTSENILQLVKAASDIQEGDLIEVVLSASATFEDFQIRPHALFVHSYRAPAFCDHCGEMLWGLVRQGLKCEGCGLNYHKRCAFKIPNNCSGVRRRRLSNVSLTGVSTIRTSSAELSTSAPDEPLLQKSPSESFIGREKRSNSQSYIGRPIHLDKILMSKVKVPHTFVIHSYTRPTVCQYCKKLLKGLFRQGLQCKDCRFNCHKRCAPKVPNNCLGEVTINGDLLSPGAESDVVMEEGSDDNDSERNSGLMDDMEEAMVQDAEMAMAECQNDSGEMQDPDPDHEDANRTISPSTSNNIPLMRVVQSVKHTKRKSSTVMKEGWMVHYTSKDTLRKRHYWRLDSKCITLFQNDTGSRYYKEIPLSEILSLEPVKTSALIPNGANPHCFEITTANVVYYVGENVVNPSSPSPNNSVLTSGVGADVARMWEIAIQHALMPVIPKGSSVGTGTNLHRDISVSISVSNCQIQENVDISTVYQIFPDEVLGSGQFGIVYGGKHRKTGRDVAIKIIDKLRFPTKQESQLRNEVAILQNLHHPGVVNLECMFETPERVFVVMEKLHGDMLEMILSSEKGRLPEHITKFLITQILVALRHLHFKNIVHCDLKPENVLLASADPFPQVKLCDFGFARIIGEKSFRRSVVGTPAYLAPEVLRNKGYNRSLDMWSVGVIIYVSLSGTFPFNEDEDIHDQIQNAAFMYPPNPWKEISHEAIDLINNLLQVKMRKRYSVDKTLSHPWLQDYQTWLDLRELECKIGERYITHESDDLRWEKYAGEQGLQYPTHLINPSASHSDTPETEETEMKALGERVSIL

[2] = biological target: T2, Calcium/calmodulin-dependent protein kinase type IV (Homo sapiens) (UniProt Q16566); assay: Inhibition of CAMK4 at 1 uM
T2 sequence (whole entry): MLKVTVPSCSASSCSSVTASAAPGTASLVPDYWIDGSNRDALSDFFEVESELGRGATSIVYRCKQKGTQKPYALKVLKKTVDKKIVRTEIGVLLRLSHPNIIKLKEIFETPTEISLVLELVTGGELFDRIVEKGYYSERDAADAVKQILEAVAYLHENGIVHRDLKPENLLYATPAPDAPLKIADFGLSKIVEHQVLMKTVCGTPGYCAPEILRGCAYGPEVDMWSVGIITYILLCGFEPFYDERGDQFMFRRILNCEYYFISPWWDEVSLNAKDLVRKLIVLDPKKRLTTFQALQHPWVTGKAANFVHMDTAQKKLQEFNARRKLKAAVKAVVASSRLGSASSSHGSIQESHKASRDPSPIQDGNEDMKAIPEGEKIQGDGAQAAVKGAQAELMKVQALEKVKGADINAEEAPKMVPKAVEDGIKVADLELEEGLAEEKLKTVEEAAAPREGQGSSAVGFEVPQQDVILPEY

[3] = biological target: T3, Tyrosine-protein kinase TXK (Homo sapiens) (UniProt P42681); assay: Inhibition of TXK at 1 uM
T3 sequence (whole entry): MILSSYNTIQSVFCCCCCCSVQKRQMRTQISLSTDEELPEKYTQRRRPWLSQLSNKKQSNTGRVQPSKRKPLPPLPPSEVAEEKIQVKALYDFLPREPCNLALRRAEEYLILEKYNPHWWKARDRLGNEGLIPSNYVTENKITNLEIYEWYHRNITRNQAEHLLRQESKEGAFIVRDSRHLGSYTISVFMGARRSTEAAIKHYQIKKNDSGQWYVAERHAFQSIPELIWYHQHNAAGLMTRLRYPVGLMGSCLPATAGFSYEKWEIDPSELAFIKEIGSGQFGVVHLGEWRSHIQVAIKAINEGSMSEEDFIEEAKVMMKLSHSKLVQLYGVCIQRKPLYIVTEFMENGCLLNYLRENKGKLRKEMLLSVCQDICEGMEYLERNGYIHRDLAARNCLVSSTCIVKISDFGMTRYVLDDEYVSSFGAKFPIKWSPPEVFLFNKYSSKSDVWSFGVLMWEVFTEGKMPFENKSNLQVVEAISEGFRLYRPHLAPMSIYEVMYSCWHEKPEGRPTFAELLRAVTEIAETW

[4] = biological target: T4, Serine/threonine-protein kinase Nek9 (Homo sapiens) (UniProt Q8TD19); assay: Inhibition of NEK9 at 1 uM
T4 sequence (whole entry): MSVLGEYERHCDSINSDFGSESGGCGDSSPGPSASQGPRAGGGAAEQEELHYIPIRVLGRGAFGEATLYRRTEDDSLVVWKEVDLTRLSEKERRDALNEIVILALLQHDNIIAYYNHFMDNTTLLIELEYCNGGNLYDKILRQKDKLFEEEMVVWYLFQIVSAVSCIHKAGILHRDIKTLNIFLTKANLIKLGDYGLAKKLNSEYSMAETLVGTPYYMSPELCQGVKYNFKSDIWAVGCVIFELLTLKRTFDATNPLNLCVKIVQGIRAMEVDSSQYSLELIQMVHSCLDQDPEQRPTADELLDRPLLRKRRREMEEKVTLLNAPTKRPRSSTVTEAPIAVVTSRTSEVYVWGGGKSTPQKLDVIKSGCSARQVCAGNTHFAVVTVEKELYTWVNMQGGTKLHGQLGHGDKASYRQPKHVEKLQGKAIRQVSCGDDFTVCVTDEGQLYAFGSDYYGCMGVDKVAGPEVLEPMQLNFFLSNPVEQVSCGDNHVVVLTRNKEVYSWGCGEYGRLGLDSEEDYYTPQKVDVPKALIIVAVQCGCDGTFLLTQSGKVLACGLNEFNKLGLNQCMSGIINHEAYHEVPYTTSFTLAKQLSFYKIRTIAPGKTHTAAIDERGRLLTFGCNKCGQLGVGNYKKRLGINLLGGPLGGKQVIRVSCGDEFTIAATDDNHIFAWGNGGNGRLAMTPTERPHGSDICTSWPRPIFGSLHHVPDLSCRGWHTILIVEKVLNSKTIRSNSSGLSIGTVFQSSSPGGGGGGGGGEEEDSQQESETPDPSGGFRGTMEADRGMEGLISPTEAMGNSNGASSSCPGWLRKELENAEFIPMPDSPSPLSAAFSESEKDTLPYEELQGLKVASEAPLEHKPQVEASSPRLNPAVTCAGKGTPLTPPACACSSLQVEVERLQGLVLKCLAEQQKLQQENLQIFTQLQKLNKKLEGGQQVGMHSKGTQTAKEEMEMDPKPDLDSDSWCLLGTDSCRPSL

Row | inhibition [1] [%] | inhibition [2] [%] | inhibition [3] [%] | Structure (SMILES) | inhibition [4] [%]
1 | < 50 | < 50 | < 50 | CN1CCN(c2ccc(-c3cnc4c(c3)N(Cc3cc(Cl)ccc3C(F)(F)F)CCN4)cn2)CC1 | < 50
2 |  |  | < 50 | O=C(O)c1ccc(-c2cnc3c(c2)N(Cc2cc(Cl)ccc2C(F)(F)F)CCN3)cc1 | < 50
3 |  |  | < 50 | O=C(c1ccc(-c2cnc3c(c2)N(Cc2cc(Cl)ccc2C(F)(F)F)CCN3)cc1)N1CCC(N2CCCC2)CC1 | < 50
4 |  |  | < 50 | COC1CCN(C(=O)c2ccc(-c3cnc4c(c3)N(Cc3cc(Cl)ccc3C(F)(F)F)CCN4)cc2)CC1 | < 50
5 | < 50 | < 50 | < 50 | FC(F)(F)c1ccc(Cl)cc1CN1CCNc2ncc(-c3ccnc(N4CCNCC4)c3)cc21 | < 50
6 | < 50 | < 50 | < 50 | CC(=O)N1CCN(c2cc(-c3cnc4c(c3)N(Cc3cc(Cl)ccc3C(F)(F)F)CCN4)ccn2)CC1 | < 50
7 | 67 | < 50 | < 50 | CN1CCN(c2ccc(-c3cnc4c(c3)N(Cc3cc(F)ccc3F)CCN4)cn2)CC1 | < 50
8 | 67 | < 50 | < 50 | CN1CCN(c2ccc(-c3cnc4c(c3)N(Cc3c(F)ccc(F)c3Cl)CCN4)cn2)CC1 | < 50
9 |  |  | < 50 | O=C(c1ccc(-c2cnc3c(c2)N(Cc2cc(Cl)ccc2C(F)(F)F)CCN3)cc1)N1CCCCC1 | < 50
10 | < 50 | < 50 | < 50 | CN1CCN(c2ccc(-c3cnc4c(c3)N(Cc3cc(Cl)ccc3Cl)CCN4)cn2)CC1 | < 50
